Our source for the minimal effective concentration and Thrombozytenaggregation gehemmt values is patent EP0115640A2, “Substituted 4-imidazolyl-pyrazoles, process for their preparation and medicaments containing them” (BAYER AG, priority 1983, dated 1984).

One test deals with Thrombozytenaggregation. In words: Inhibition of collagen-induced platelet aggregation in platelet-rich plasma (turbidimetric method, aggregometer). Format: cell-based, Human. As to conditions: Homo sapiens, Platelet; PRP, 37°C, aggregation triggered with Kollagensuspension; minimal concentration that inhibits aggregation; read-out: Hemmung der Thrombozytenaggregation minimal effektive Konzentration. The text has this: Thrombozytenaggregationshemmung
Für die Bestimmung der thrombozytenaggregationshemmenden Wirkung wurde Blut von gesunden Spendern, die mindestens 14 Tage lang kein Medikament eingenommen hatten, verwendet. Das Blut wurde in 3,8 %-iger Natriumcitratlösung aufgenommen. Plättchenreiches Plasma (PRP) wurde durch 20 Minuten Zentrifugation bei 150 g und Raumtemperatur gewonnen (Jürgens/Beller: Klinische Methoden der Blutgerinnungsanalyse; Thieme-Verlag Stuttgart 1959). Die Plättchenaggregation wurde nach der turbidometrischen Methode (Born, G.V.R.: J. Physiol. 162, 67 (1962)) im Aggregometer bei 37°C bestimmt. Hierzu wurde PRP mit Prüfsubstanz bei 37°C inkubiert und anschließend die Aggregation durch Zugabe einer Kollagensuspension ausgelöst. Bestimmt wurde die minimale Konzentration einer Prüfsubstanz, die die Thrombozytenaggregation hemmte.
In diesem Test wird die Thrombozytenaggregation insbesondere durch die Verbindungen folgender Herstellungsbeispiele gehemmt: 1, 2, 9 und 15.
On to `Cn1cc(-n2ccnc2)c(C(C)(C)COc2ccc(Cl)cc2)n1` [Beispiel 15], for which the minimal effective concentration stood at 30 µg/mL. The same measure, in the same setting: under `c1c[nH]cn1` [Imidazol] stands 30 µg/mL.

Still in this test, the particulars now being: result in words, PRP, collagen-induced.
With `CC(C)(C)c1n[nH]cc1-n1ccnc1` [Beispiel 1], the Thrombozytenaggregation gehemmt result was “gehemmt”. Same read-out and setting: as for `Cn1cc(-n2ccnc2)c(C(C)(C)C)n1` [Beispiel 2, 3-tert.-Butyl-1-methyl-4-(imidazol-1-yl)-pyrazol], the entry is “gehemmt”. Same read-out and setting: under `CC(C)(COc1ccc(Cl)cc1Cl)c1n[nH]cc1-n1ccnc1` [Beispiel 9] stands “gehemmt”; under `Cn1cc(-n2ccnc2)c(C(C)(C)COc2ccc(Cl)cc2)n1` [Beispiel 15], “gehemmt”.
